Experimental data taken from patent US9382228B2 (priority 2013, dated 2016).

Experiments:
[1] = test system: phospho-FMS in THP-1 cells; assay: cells; conditions: Homo sapiens, THP-1, read-out: pFMS inhibition in THP-1 cells
Protocol: In a separate 96 well black clear bottom plate, one hundred and fifty thousand THP-1 cells were added per well in 100 μL in assay medium. Fifty microliters of diluted compound was then added to the cells. […] Lysates were prepared and used to perform the phospho-FMS ELISA as described by the manufacturer (catalog #DYC3268, R & D Systems, Minneapolis, Minn.). GraphPad Prism was used to calculate IC50 values obtained from data generated from the ELISA assay.

[2] = target: unphosphorylated c-KIT kinase (uKIT, Seq. ID no. 2) (Homo sapiens, UniProt P10721); assay: biochemical
Protocol: uKit kinase (Seq. ID No. 2) Assay
In this assay, the oxidation of NADH (thus the decrease at A340 nm) was continuously monitored spectrophometrically. […] The inhibition reaction was started by mixing serial diluted test compound with the above reaction mixture. The absorption at 340 nm was monitored continuously for 4 hours at 30° C. on Synergy 2 plate reader (BioTech).

M-NFS-60 cells = assay: cells; conditions: 67 h, read-out: M-NFS-60 cell proliferation
Protocol: M-NFS-6 Cell Proliferation Assay
A serial dilution of test compound was dispensed into a 384-well black clear bottom plate (Corning, Corning, N.Y.). Two thousand five hundred cells were added per well in 50 μL complete growth medium. […] IC50 values were calculated from a series of percent inhibition values determined at a range of inhibitor concentrations using software routines as implemented in the GraphPad Prism software package.

[3] = target: unphosphorylated PDGFRβ kinase (uPDGFRβ, Seq. ID No. 3) (Homo sapiens, UniProt P09619); assay: biochemical
Protocol: Unphosphorylated PDGFRβ (uPDGFRβ) Kinase (Seq. ID No. 3) Assay
In this assay, the oxidation of NADH (thus the decrease at A340 nm) was continuously monitored spectrophometrically. […] The inhibition reaction was started by mixing serial diluted test compound with the above reaction mixture. The absorption at 340 nm was monitored continuously for 4 h at 30° C. on a Polarstar Optima or Synergy 2 plate reader. The reaction rate was calculated using the 1.5 to 2.5 h time frame. Percent inhibition was obtained by comparison of reaction rate with that of a control (i.e. with no test compound). IC50 values were calculated from a series of percent inhibition values determined at a range of inhibitor concentrations using software routines as implemented in the GraphPad Prism software package.

osteoclast precursors = assay: cells; type: cell-based; conditions: read-out: Osteoclast assay
[4] = target: T1, unphosphorylated c-FMS kinase (uFMS, Seq. ID no. 1) (Homo sapiens, UniProt P07333); assay: biochemical
T1 sequence (P07333 538-972): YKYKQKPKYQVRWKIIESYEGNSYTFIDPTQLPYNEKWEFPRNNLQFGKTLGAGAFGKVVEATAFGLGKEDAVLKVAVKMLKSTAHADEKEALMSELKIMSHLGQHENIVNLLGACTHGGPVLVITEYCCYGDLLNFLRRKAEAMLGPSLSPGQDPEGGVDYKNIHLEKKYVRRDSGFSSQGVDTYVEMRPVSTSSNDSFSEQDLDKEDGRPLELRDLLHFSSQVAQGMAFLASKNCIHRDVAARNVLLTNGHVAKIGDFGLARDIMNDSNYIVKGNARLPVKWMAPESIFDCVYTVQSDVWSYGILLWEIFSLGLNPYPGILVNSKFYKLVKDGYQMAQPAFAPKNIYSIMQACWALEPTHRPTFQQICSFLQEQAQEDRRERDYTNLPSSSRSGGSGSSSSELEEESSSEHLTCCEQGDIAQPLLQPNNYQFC

[5] = uKIT, enzymatic assay, ATP 2000 μM
[6] = uPDGFRb, enzymatic assay, ATP 500 μM
[7] = uFMS, enzymatic assay, ATP 500 μM

unphosphorylated PDGFRβ kinase (uPDGFRβ, Seq. ID No. 3), sequence (P09619 557-1106): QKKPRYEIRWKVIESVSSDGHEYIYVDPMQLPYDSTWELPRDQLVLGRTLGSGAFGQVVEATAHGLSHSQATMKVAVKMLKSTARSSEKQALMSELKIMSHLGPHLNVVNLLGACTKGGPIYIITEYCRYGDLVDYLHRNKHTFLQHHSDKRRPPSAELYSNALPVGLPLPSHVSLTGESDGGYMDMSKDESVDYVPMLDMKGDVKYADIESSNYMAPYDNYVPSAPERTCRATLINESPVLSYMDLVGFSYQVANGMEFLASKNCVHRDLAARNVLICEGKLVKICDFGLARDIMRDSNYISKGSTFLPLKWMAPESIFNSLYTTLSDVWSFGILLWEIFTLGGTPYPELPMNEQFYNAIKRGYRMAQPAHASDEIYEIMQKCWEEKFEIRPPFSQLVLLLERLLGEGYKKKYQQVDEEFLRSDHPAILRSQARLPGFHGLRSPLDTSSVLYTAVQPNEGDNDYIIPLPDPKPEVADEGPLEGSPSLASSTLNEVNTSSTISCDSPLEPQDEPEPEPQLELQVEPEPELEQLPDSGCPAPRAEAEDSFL
unphosphorylated c-KIT kinase (uKIT, Seq. ID no. 2), sequence (P10721 with tags, fused parts or gaps): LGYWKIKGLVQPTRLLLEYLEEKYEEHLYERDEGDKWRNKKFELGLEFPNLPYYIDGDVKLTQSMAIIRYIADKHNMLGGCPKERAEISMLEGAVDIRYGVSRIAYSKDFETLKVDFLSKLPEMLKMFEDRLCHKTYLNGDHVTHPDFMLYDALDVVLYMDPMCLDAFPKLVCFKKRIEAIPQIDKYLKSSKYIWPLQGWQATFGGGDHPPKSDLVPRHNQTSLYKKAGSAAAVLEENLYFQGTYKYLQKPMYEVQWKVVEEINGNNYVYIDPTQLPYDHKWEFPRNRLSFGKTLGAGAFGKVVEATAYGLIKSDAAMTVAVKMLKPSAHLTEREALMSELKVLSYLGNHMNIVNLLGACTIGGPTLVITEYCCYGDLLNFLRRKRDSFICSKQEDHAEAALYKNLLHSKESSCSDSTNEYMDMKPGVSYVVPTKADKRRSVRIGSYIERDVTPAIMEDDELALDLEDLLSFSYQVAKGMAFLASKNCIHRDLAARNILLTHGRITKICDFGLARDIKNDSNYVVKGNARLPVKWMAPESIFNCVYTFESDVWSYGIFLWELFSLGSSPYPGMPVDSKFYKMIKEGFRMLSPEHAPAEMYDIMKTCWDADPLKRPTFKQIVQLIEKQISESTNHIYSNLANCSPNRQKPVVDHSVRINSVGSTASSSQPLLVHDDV

SMILES | IC50 [1] [nM] | IC50 [2, 5] [nM] | IC50 (M-NFS-60 cells) [nM] | IC50 [3, 6] [nM] | IC50 (osteoclast precursors) [nM] | IC50 [4, 7] [nM] | IC50 ([2]; IC50 (nM) uKIT, Table 3) [nM] | IC50 ([3]; IC50 (nM) uPDGFRβ, Table 3) [nM] | IC50 ([4]; IC50 (nM) uFMS, Table 3) [nM]
Cc1nc(NC(=O)NC(=O)C2CC3(CCC3)C2)ccc1Oc1ccnc(-c2cnn(C)c2)c1 [Example 32, N-((6-methyl-5-((2-(1-methyl-1H-pyrazol-4-yl)pyridin-4-yl)oxy)pyridin-2-yl)carbamoyl)spiro[3.3]heptane-2-carboxamide] | < 10 | < 10 | 10 to 100 | 10 to 100 | < 10 | < 10 | – | – | –
CCOC(C)(C)C(=O)NC(=O)Nc1ccc(Oc2ccnc(-c3ccnc(C)c3)c2)cn1 [Example 161, 2-ethoxy-2-methyl-N-((5-((2′-methyl-[2,4′-bipyridin]-4-yl)oxy)pyridin-2-yl)carbamoyl)propanamide] | 10 to 100 | > 1000 | 10 to 100 | > 1000 | 10 to 100 | < 10 | – | – | –
Cc1cn(-c2cc(Oc3ccc(NC(=O)NC(=O)C(C)(C)C)nc3)ccn2)cn1 [Example 99, N-((5-((2-(4-methyl-1H-imidazol-1-yl)pyridin-4-yl)oxy)pyridin-2-yl)carbamoyl)pivalamide] | < 10 | > 1000 | 10 to 100 | 100 to 1000 | 10 to 100 | < 10 | 4000 | 366 | 4
CCc1nc(NC(=O)NC(=O)C2(C)CCOCC2)ccc1Oc1ccnc(-c2cnn(C)c2)c1 [Example 167, N-((6-ethyl-5-((2-(1-methyl-1H-pyrazol-4-yl)pyridin-4-yl)oxy)pyridin-2-yl)carbamoyl)-4-methyltetrahydro-2H-pyran-4-carboxamide] | 10 to 100 | > 1000 | 100 to 1000 | > 1000 | 100 to 1000 | 10 to 100 | – | – | –
CCOC(C)(C)C(=O)NC(=O)Nc1ccc(Oc2ccnc(-c3cnn(C)c3)c2)cn1 [Example 123, 2-ethoxy-2-methyl-N-((5-((2-(1-methyl-1H-pyrazol-4-yl)pyridin-4-yl)oxy)pyridin-2-yl)carbamoyl)propanamide] | 10 to 100 | 100 to 1000 | 10 to 100 | 100 to 1000 | < 10 | < 10 | – | – | –
Cc1cc(NC(=O)NC(=O)C2(C)CCOCC2)nc(C)c1Oc1ccnc(-c2cnn(C)c2)c1 [Example 165, N-((4,6-dimethyl-5-((2-(1-methyl-1H-pyrazol-4-yl)pyridin-4-yl)oxy)pyridin-2-yl)carbamoyl)-4-methyltetrahydro-2H-pyran-4-carboxamide] | 10 to 100 | 100 to 1000 | 10 to 100 | 10 to 100 | 10 to 100 | < 10 | – | – | –
Cc1nc(NC(=O)NC(=O)C2(C(F)(F)F)CC2)ccc1Oc1ccnc(-c2cnn(C)c2)c1 [Example 34, N-((6-methyl-5-((2-(1-methyl-1H-pyrazol-4-yl)pyridin-4-yl)oxy)pyridin-2-yl)carbamoyl)-1-(trifluoromethyl)cyclopropanecarboxamide] | 10 to 100 | 100 to 1000 | 10 to 100 | 100 to 1000 | < 10 | < 10 | – | – | –
Cc1cn(-c2cc(Oc3ccc(NC(=O)NC(=O)C4(C)CC4)nc3C)ccn2)cn1 [Example 135, 1-methyl-N-((6-methyl-5-((2-(4-methyl-1H-imidazol-1-yl)pyridin-4-yl)oxy)pyridin-2-yl)carbamoyl)cyclopropanecarboxamide] | 10 to 100 | > 1000 | 10 to 100 | > 1000 | < 10 | 10 to 100 | – | – | –
COC(C)(C)C(=O)NC(=O)Nc1ccc(Oc2ccnc(-c3cnc(C)o3)c2)cn1 [Example 159, 2-methoxy-2-methyl-N-((5-((2-(2-methyloxazol-5-yl)pyridin-4-yl)oxy)pyridin-2-yl)carbamoyl)propanamide] | < 10 | > 1000 | 10 to 100 | > 1000 | 10 to 100 | 10 to 100 | – | – | –
Cn1cc(-c2cc(Oc3ccc(NC(=O)NC(=O)CC4CCOCC4)nc3)ccn2)cn1 [Example 4, N-((5-((2-(1-methyl-1H-pyrazol-4-yl)pyridin-4-yl)oxy)pyridin-2-yl)carbamoyl)-2-(tetrahydro-2H-pyran-4-yl)acetamide] | 10 to 100 | 100 to 1000 | < 10 | 100 to 1000 | < 10 | < 10 | 165 | 168 | 8
COC(C)(C)C(=O)NC(=O)Nc1ccc(Oc2ccnc(-n3cnc(C)c3)c2)cn1 [Example 130, 2-methoxy-2-methyl-N-((5-((2-(4-methyl-1H-imidazol-1-yl)pyridin-4-yl)oxy)pyridin-2-yl)carbamoyl)propanamide] | < 10 | > 1000 | 10 to 100 | > 1000 | 10 to 100 | 10 to 100 | – | – | –
CC(C)C(=O)NC(=O)Nc1ccc(Oc2ccnc(-c3ccc(C4CCN(C)CC4)cc3)c2)cn1 [Example 75, N-((5-((2-(4-(1-methylpiperidin-4-yl)phenyl)pyridin-4-yl)oxy)pyridin-2-yl)carbamoyl)isobutyramide] | < 10 | 100 to 1000 | < 10 | 100 to 1000 | < 10 | < 10 | – | – | –
Cc1nc(NC(=O)NC(=O)C(C)(C)C)ccc1Oc1ccnc(-c2ccc(C#N)nc2)c1 [Example 107, N-((5-((6′-cyano-[2,3′-bipyridin]-4-yl)oxy)-6-methylpyridin-2-yl)carbamoyl)pivalamide] | 10 to 100 | > 1000 | 100 to 1000 | > 1000 | 10 to 100 | 10 to 100 | – | – | –
CCn1cc(-c2cc(Oc3ccc(NC(=O)NC(=O)C(C)(C)OC)nc3)ccn2)cn1 [Example 170, N-((5-((2-(1-ethyl-1H-pyrazol-4-yl)pyridin-4-yl)oxy)pyridin-2-yl)carbamoyl)-2-methoxy-2-methylpropanamide] | 10 to 100 | 100 to 1000 | < 10 | > 1000 | < 10 | < 10 | – | – | –
Cn1cc(-c2cc(Oc3ccc(NC(=O)NC(=O)C(C)(C)C)nc3)ccn2)cn1 [Example 26, N-((5-((2-(1-methyl-1H-pyrazol-4-yl)pyridin-4-yl)oxy)pyridin-2-yl)carbamoyl)pivalamide] | 10 to 100 | 100 to 1000 | < 10 | 100 to 1000 | < 10 | < 10 | – | – | –
COC(C)(C)C(=O)NC(=O)Nc1ccc(Oc2ccnc(-c3ccnc(C)c3)c2)cn1 [Example 160, 2-methoxy-2-methyl-N-((5-((2′-methyl-[2,4′-bipyridin]-4-yl)oxy)pyridin-2-yl)carbamoyl)propanamide] | < 10 | > 1000 | < 10 | > 1000 | 10 to 100 | < 10 | – | – | –
Cn1cc(-c2cc(Oc3ccc(NC(=O)NC(=O)C4CC(C)(C)C4)nc3)ccn2)cn1 [Example 2, 3,3-dimethyl-N-((5-((2-(1-methyl-1H-pyrazol-4-yl)pyridin-4-yl)oxy)pyridin-2-yl)carbamoyl)cyclobutanecarboxamide] | < 10 | < 10 | < 10 | 10 to 100 | < 10 | < 10 | – | – | –
Cn1cc(-c2cc(Oc3ccc(NC(=O)NC(=O)C4(C(F)(F)F)CC4)nc3)ccn2)cn1 [Example 33, N-((5-((2-(1-methyl-1H-pyrazol-4-yl)pyridin-4-yl)oxy)pyridin-2-yl)carbamoyl)-1-(trifluoromethyl)cyclopropanecarboxamide] | 10 to 100 | 100 to 1000 | 10 to 100 | 10 to 100 | < 10 | < 10 | – | – | –
CCC(C)(C)C(=O)NC(=O)Nc1ccc(Oc2ccnc(-c3cnn(C)c3)c2)c(C)n1 [Example 69, 2,2-dimethyl-N-((6-methyl-5-((2-(1-methyl-1H-pyrazol-4-yl)pyridin-4-yl)oxy)pyridin-2-yl)carbamoyl)butanamide] | 10 to 100 | 100 to 1000 | < 10 | 100 to 1000 | 10 to 100 | < 10 | – | – | –
Cc1nc(NC(=O)NC(=O)C(C)(C)C)ccc1Oc1ccnc(-c2c[nH]nn2)c1 [Example 171, N-((5-((2-(1H-1,2,3-triazol-4-yl)pyridin-4-yl)oxy)-6-methylpyridin-2-yl)carbamoyl)pivalamide] | 10 to 100 | > 1000 | 10 to 100 | > 1000 | 10 to 100 | < 10 | – | – | –
COC(C)(C)C(=O)NC(=O)Nc1ccc(Oc2ccnc(-c3cn(C)cn3)c2)cn1 [Example 132, 2-methoxy-2-methyl-N-((5-((2-(1-methyl-1H-imidazol-4-yl)pyridin-4-yl)oxy)pyridin-2-yl)carbamoyl)propanamide] | < 10 | > 1000 | 10 to 100 | 100 to 1000 | < 10 | < 10 | – | – | –
